Experimental data reported in patent US20130045983A1, “HSP90 INHIBITORS FOR THERAPEUTIC TREATMENT” (Novartis AG, priority 2008, published 2013).

Key:
Format in all cases: cell-based
H1975 = assay: Cell proliferation assay, H1975 (lung); details: Homo sapiens, NCI-H1975, 72 hours in presence of compound
Experimental: (§1) Seventeen cancer derived cell lines are used (GTL-16, N87, H1975, A549, H69, A2780, PC3, BT474, SKBR3, MCF-7, A375, MV4;11, K562, KM12L4A, H929, OPM-2 and KMS-11) to test the effect of (R)-2-amino-7-[2-(6-methoxy-pyridin-2-yl)-phenyl]-4-methyl-7,8-dihydro-6H-pyrido[4,3-d]pyrimidin-5-one. These cell lines cover the following 9 tumor types: Gastric, Lung, Ovarian, Prostate, Breast, Melanoma, Leukemia, Colon and Multiple myeloma. After division and medium change, cells from stock culture are seeded on cell plates and cultured for about 18 hours to allow cell growth and attachment before starting the assay. Then on the first day of the assay, (R)-2-amino-7-[2-(6-methoxy-pyridin-2-yl)-phenyl]-4-methyl-7,8-dihydro-6H-pyrido[4,3-d]pyrimidin-5-one is added to the medium at various concentrations. Cells are cultured up to 72 or 96 hours and cell proliferation is determined using commercially available cell proliferation kits.
(§2) Table 1 relates to the concentration in nM of (R)-2-amino-7-[2-(6-methoxy-pyridin-2-yl)-phenyl]-4-methyl-7,8-dihydro-6H-pyrido[4,3-d]pyrimidin-5-one which inhibits cell proliferation by 50% (IC50). […]

A2780 = assay: Cell proliferation assay, A2780 (ovarian); details: Homo sapiens, 72 hours in presence of compound
Experimental: as §1, §2

MV4:11 = assay: Cell proliferation assay, MV4:11 (leukemia); details: Homo sapiens, 72 hours in presence of compound
Experimental: as §1, §2

KM12L4A = assay: Cell proliferation assay, KM12L4A (colon); details: 72 hours in presence of compound
Experimental: as §1, §2

BXF 1218 = assay: Clonogenic assay, BXF 1218; details: Homo sapiens, Bladder, Transitional cell carcinoma, soft agar, read-out: IC50 (colony formation)
Experimental: (§3) The anticancer activity of (R)-2-amino-7-[2-(6-methoxy-pyridin-2-yl)-phenyl]-4-methyl-7,8-dihydro-6H-pyrido[4,3-d]pyrimidin-5-one is evaluated in 30 human tumor xenografts in vitro using a clonogenic assay. In this assay, human cells derived from cancer patients are evaluated for the capacity of (R)-2-amino-7-[2-(6-methoxy-pyridin-2-yl)-phenyl]-4-methyl-7,8-dihydro-6H-pyrido[4,3-d]pyrimidin-5-one to inhibit the formation of 3 dimensional colonies. […] The tumor xenografts which have never been cultured in cell culture plastic dishes are isolated from nude mice. Tumor cell suspensions are prepared and incubated in 24 well plates containing layers of soft agar. Under these conditions a special subpopulation of cells selectively grows to colonies. (R)-2-amino-7-[2-(6-methoxy-pyridin-2-yl)-phenyl]-4-methyl-7,8-dihydro-6H-pyrido[4,3-d]pyrimidin-5one is tested in 6 concentrations up to 1000 nM. The tumor test panel comprises 1 to 10 models of 12 different human tumor types, which were bladder cancer, colon, gastric, non small cell lung (adeno, squamous cell, and large cell), small cell lung, mammary, ovary, and prostate cancer, as well as leukemia, lymphoma, melanoma, and sarcoma. Antitumor effects are recorded as inhibition of colony formation in relation to untreated controls. […]

CXF 1103 = assay: Clonogenic assay, CXF 1103; details: Homo sapiens, CXF1103, Colon, Adenocarcinoma, soft agar, read-out: IC50 (colony formation)
Experimental: as §3

GXF 1172 = assay: Clonogenic assay, GXF 1172; details: Homo sapiens, Stomach, Signet-ring cell carcinoma, soft agar, read-out: IC50 (colony formation)
Experimental: as §3

GXF 209 = assay: Clonogenic assay, GXF 209; details: Homo sapiens, Stomach, Signet-ring cell carcinoma, soft agar, read-out: IC50 (colony formation)
Experimental: as §3

LXFA 1012 = assay: Clonogenic assay, LXFA 1012; details: Homo sapiens, Lung, non-small cell, Adenocarcinoma, soft agar, read-out: IC50 (colony formation)
Experimental: as §3

LXFA 289 = assay: Clonogenic assay, LXFA 289; details: Homo sapiens, Lung, non-small cell, Adenocarcinoma, soft agar, read-out: IC50 (colony formation)
Experimental: as §3

LXFA 629 = assay: Clonogenic assay, LXFA 629; details: Homo sapiens, Lung, non-small cell, Adenocarcinoma, soft agar, read-out: IC50 (colony formation)
Experimental: as §3

LXFA 677 = assay: Clonogenic assay, LXFA 677; details: Homo sapiens, Lung, non-small cell, Adenocarcinoma, soft agar, read-out: IC50 (colony formation)
Experimental: as §3

LXFA 737 = assay: Clonogenic assay, LXFA 737; details: Homo sapiens, Lung, non-small cell, Adenocarcinoma, soft agar, read-out: IC50 (colony formation)
Experimental: as §3

LXFE 1422 = assay: Clonogenic assay, LXFE 1422; details: Homo sapiens, Lung, non-small cell, Squamous cell carcinoma, soft agar, read-out: IC50 (colony formation)
Experimental: as §3

LXFE 211 = assay: Clonogenic assay, LXFE 211; details: Homo sapiens, Lung, non-small cell, Squamous cell carcinoma, soft agar, read-out: IC50 (colony formation)
Experimental: as §3

LXFL 1176 = assay: Clonogenic assay, LXFL 1176; details: Homo sapiens, Lung, non-small cell, Mucous large cell lung carcinoma, soft agar, read-out: IC50 (colony formation)
Experimental: as §3

LXFL 1647 = assay: Clonogenic assay, LXFL 1647; details: Homo sapiens, Lung, non-small cell, Large cell lung carcinoma, soft agar, read-out: IC50 (colony formation)
Experimental: as §3

MEXF 462 = assay: Clonogenic assay, MEXF 462; details: Homo sapiens, Amelanotic melanoma, soft agar, read-out: IC50 (colony formation)
Experimental: as §3

PRXF DU145 = assay: Clonogenic assay, PRXF DU145; details: Homo sapiens, DU-145, Prostate, Adenocarcinoma, soft agar, read-out: IC50 (colony formation)
Experimental: as §3

SXF 1186 = assay: Clonogenic assay, SXF 1186; details: Homo sapiens, Sarcoma, Osteoblastic osteosarcoma, soft agar, read-out: IC50 (colony formation)
Experimental: as §3

SXF 1301 = assay: Clonogenic assay, SXF 1301; details: Homo sapiens, Sarcoma, Malignant rhabdomyosarcoma, soft agar, read-out: IC50 (colony formation)
Experimental: as §3

GI50 (H1975): 33 nM | GI50 (A2780): 27 nM | GI50 (MV4:11): 4 nM | IC50 (BXF 1218): 26 nM | IC50 (CXF 1103): 27 nM | IC50 (GXF 1172): 43 nM | IC50 (GXF 209): 28 nM | IC50 (LXFA 1012): > 1000 nM | IC50 (LXFA 289): 639 nM | IC50 (LXFA 629): 27 nM | IC50 (LXFA 677): 27 nM | IC50 (LXFA 737): 26 nM | IC50 (LXFE 1422): 20 nM | IC50 (LXFE 211): 0.76 nM | IC50 (LXFL 1176): 21 nM | IC50 (LXFL 1647): 203 nM | IC50 (MEXF 462): 65 nM | IC50 (PRXF DU145): 17 nM | IC50 (SXF 1186): 21 nM | IC50 (SXF 1301): 26 nM
SMILES: COc1cccc(-c2ccccc2[C@H]2Cc3nc(N)nc(C)c3C(=O)N2)n1 [(R)-2-amino-7-[2-(6-methoxy-pyridin-2-yl)-phenyl]-4-methyl-7,8-dihydro-6H-pyrido[4,3-d]pyrimidin-5-one]
GI50 (KM12L4A): 11 nM
